Source: ChEMBL document CHEMBL4818987, “Recent advances of podophyllotoxin/epipodophyllotoxin hybrids in anticancer activity, mode of action, and structure-activity relationship: An update (2010-2020)” (Eur J Med Chem, 2020)
pIC50: −log10 of the molar value.

Columns and labels:
Assay type in all cases: functional, cell-based
[1] = tested on: HepG2; experiment: Antiproliferative activity against human HepG2 cells incubated for 48 to 72 hrs by MTT assay
[2] = tested on: NCI-H1993; experiment: Antiproliferative activity against human NCI-H1993 cells incubated for 48 to 72 hrs by MTT assay
[3] = tested on: MKN-45; experiment: Antiproliferative activity against human MKN-45 cells incubated for 48 to 72 hrs by MTT assay
[4] = tested on: B16; experiment: Antiproliferative activity against […] cells incubated for 48 to 72 hrs by MTT assay; conditions: Mus musculus
[5] = tested on: KB; experiment: Cytotoxicity against human Vincristine-resistant KB cells incubated for 72 hrs by SRB method
[6] = tested on: KB; experiment: Cytotoxicity against human KB cells incubated for 72 hrs by SRB method

Structure (SMILES)	pIC50 [1]	pIC50 [2]	pIC50 [3]	pIC50 [4]	pIC50 [5]	pIC50 [6]
COc1cc([C@@H]2c3cc4c(cc3[C@H](n3cc(COc5ccc6c(c5)OCO6)nn3)[C@H]3COC(=O)[C@H]23)OCO4)cc(OC)c1OC	6.89	6.89	6.89	6.89	–	–
COc1cc([C@@H]2c3cc4c(cc3[C@@H](SSCCO)[C@H]3COC(=O)[C@H]23)OCO4)cc(OC)c1O	–	–	–	–	5.95	5.95
COc1cc([C@@H]2c3cc4c(cc3[C@@H](SSCCCN3CCC(O)CC3)[C@H]3COC(=O)[C@H]23)OCO4)cc(OC)c1O	–	–	–	–	5.95	5.95
COc1cc([C@@H]2c3cc4c(cc3[C@H](n3cc(COc5ccc(-c6ccccc6)cc5)nn3)[C@H]3COC(=O)[C@H]23)OCO4)cc(OC)c1OC	6.82	6.82	6.82	6.82	–	–
COc1cc([C@@H]2c3cc4c(cc3[C@@H](SSCCCN3CCOCC3)[C@H]3COC(=O)[C@H]23)OCO4)cc(OC)c1O	–	–	–	–	5.95	5.95
COc1cc([C@@H]2c3cc4c(cc3[C@H](n3cc(COc5ccc(C)c([N+](=O)[O-])c5)nn3)[C@H]3COC(=O)[C@H]23)OCO4)cc(OC)c1OC	6.89	6.89	6.89	6.89	–	–
COc1cc([C@@H]2c3cc4c(cc3[C@@H](SSCCCN3CCCC3)[C@H]3COC(=O)[C@H]23)OCO4)cc(OC)c1O	–	–	–	–	5.95	5.95
COc1cc([C@@H]2c3cc4c(cc3[C@H](n3cc(COc5cccc([N+](=O)[O-])c5)nn3)[C@H]3COC(=O)[C@H]23)OCO4)cc(OC)c1OC	6.89	6.89	6.89	6.89	–	–
COc1cc([C@@H]2c3cc4c(cc3[C@@H](SSc3cccs3)[C@H]3COC(=O)[C@H]23)OCO4)cc(OC)c1O	–	–	–	–	5.95	5.95
COc1cc([C@@H]2c3cc4c(cc3[C@@H](SSSCC(=O)N3CCNCC3)[C@H]3COC(=O)[C@H]23)OCO4)cc(OC)c1O	–	–	–	–	5.95	5.95
COc1cc([C@@H]2c3cc4c(cc3[C@@H](SSCCN3CCCC(O)C3)[C@H]3COC(=O)[C@H]23)OCO4)cc(OC)c1O (stereo not given in full)	–	–	–	–	5.95	5.95
COc1cc([C@@H]2c3cc4c(cc3[C@@H](SSSCC(O)CO)[C@H]3COC(=O)[C@H]23)OCO4)cc(OC)c1O (stereo not given in full)	–	–	–	–	5.95	5.95
COc1ccc(SCc2cn([C@H]3c4cc5c(cc4[C@@H](c4cc(OC)c(OC)c(OC)c4)[C@H]4C(=O)OC[C@@H]43)OCO5)nn2)cc1	6.89	6.89	6.89	6.89	–	–
COc1cc([C@@H]2c3cc4c(cc3[C@@H](SSSCCO)[C@H]3COC(=O)[C@H]23)OCO4)cc(OC)c1O	–	–	–	–	5.95	5.95
COc1ccc(SCc2cn([C@H]3c4cc5c(cc4[C@@H](c4cc(OC)c(OC)c(OC)c4)[C@H]4C(=O)OC[C@@H]43)OCO5)nn2)cc1OC	6.89	6.89	6.89	6.89	–	–
COc1cc([C@@H]2c3cc4c(cc3[C@@H](SS[C@@H]3O[C@@H]5O[C@@H](c6cccs6)OC[C@H]5[C@H](O)[C@H]3O)[C@H]3COC(=O)[C@H]23)OCO4)cc(OC)c1O	–	–	–	–	5.95	5.95
COc1cc([C@@H]2c3cc4c(cc3[C@@H](SSCC(=O)N3CCC(=O)CC3)[C@H]3COC(=O)[C@H]23)OCO4)cc(OC)c1O	–	–	–	–	5.95	5.95
COc1ccc(OCc2cn([C@H]3c4cc5c(cc4[C@@H](c4cc(OC)c(OC)c(OC)c4)[C@H]4C(=O)OC[C@@H]43)OCO5)nn2)cc1	6.89	6.89	6.89	6.89	–	–
COc1cc([C@@H]2c3cc4c(cc3[C@@H](SSCCN3CCNCC3)[C@H]3COC(=O)[C@H]23)OCO4)cc(OC)c1O	–	–	–	–	5.95	5.95
COc1cc([C@@H]2c3cc4c(cc3[C@@H](SSCCCN3CCN(C)CC3)[C@H]3COC(=O)[C@H]23)OCO4)cc(OC)c1O	–	–	–	–	5.95	5.95
COc1cc([C@@H]2c3cc4c(cc3[C@@H](SSCCN3CCOCC3)[C@H]3COC(=O)[C@H]23)OCO4)cc(OC)c1O	–	–	–	–	5.95	5.95
COc1cc([C@@H]2c3cc4c(cc3[C@@H](SSCCCN3CCN(C(C)=O)CC3)[C@H]3COC(=O)[C@H]23)OCO4)cc(OC)c1O	–	–	–	–	5.95	5.95
COc1cc([C@@H]2c3cc4c(cc3[C@@H](SSCCCN(C(C)C)C(C)C)[C@H]3COC(=O)[C@H]23)OCO4)cc(OC)c1O	–	–	–	–	5.95	5.95
COc1cc([C@@H]2c3cc4c(cc3[C@@H](SSS[C@@H]3O[C@H](CO)[C@@H](O)[C@H](O)[C@H]3O)[C@H]3COC(=O)[C@H]23)OCO4)cc(OC)c1O	–	–	–	–	5.95	5.95

Structure (SMILES)	pIC50 [1]	pIC50 [2]	pIC50 [3]	pIC50 [4]	pIC50 [5]	pIC50 [6]
COc1cc([C@@H]2c3cc4c(cc3[C@@H](SSc3cccnc3)[C@H]3COC(=O)[C@H]23)OCO4)cc(OC)c1O	–	–	–	–	5.95	5.95
COc1cc([C@@H]2c3cc4c(cc3[C@@H](SSCC(=O)N3CCCC(O)C3)[C@H]3COC(=O)[C@H]23)OCO4)cc(OC)c1O (stereo not given in full)	–	–	–	–	5.95	5.95
COC(=O)C(N)CSS[C@@H]1c2cc3c(cc2[C@@H](c2cc(OC)c(O)c(OC)c2)[C@H]2C(=O)OC[C@@H]21)OCO3 (stereo not given in full)	–	–	–	–	5.95	5.95
COc1cc([C@@H]2c3cc4c(cc3[C@@H](SSCC(=O)N3CCOCC3)[C@H]3COC(=O)[C@H]23)OCO4)cc(OC)c1O	–	–	–	–	5.95	5.95
COc1cc([C@@H]2c3cc4c(cc3[C@@H](SSCCN)[C@H]3COC(=O)[C@H]23)OCO4)cc(OC)c1O	–	–	–	–	5.95	5.95
COc1cc([C@@H]2c3cc4c(cc3[C@@H](SSCC(=O)N3CCC(O)CC3)[C@H]3COC(=O)[C@H]23)OCO4)cc(OC)c1O	–	–	–	–	5.95	5.95
COc1cc([C@@H]2c3cc4c(cc3[C@@H](SSc3ccccn3)[C@H]3COC(=O)[C@H]23)OCO4)cc(OC)c1O	–	–	–	–	5.95	5.95
COc1cc([C@@H]2c3cc4c(cc3[C@@H](SS[C@@H]3O[C@H](CO)[C@@H](O)[C@H](O)[C@H]3O)[C@H]3COC(=O)[C@H]23)OCO4)cc(OC)c1O	–	–	–	–	5.95	5.95
CCN(CC)CCCSS[C@@H]1c2cc3c(cc2[C@@H](c2cc(OC)c(O)c(OC)c2)[C@H]2C(=O)OC[C@@H]21)OCO3	–	–	–	–	5.95	5.95
CCC(C)(C)c1ccc(OCc2cn([C@H]3c4cc5c(cc4[C@@H](c4cc(OC)c(OC)c(OC)c4)[C@H]4C(=O)OC[C@@H]43)OCO5)nn2)cc1	6.89	6.89	6.89	6.89	–	–
CCSSS[C@@H]1c2cc3c(cc2[C@@H](c2cc(OC)c(O)c(OC)c2)[C@H]2C(=O)OC[C@@H]21)OCO3	–	–	–	–	5.95	5.95
COc1cc([C@@H]2c3cc4c(cc3[C@H](n3cc(COc5ccc6ccc(=O)oc6c5)nn3)[C@H]3COC(=O)[C@H]23)OCO4)cc(OC)c1OC	6.89	6.89	6.89	6.89	–	–
COc1cc([C@@H]2c3cc4c(cc3[C@@H](SS[C@@H]3O[C@@H]5O[C@@H](C)OC[C@H]5[C@H](O)[C@H]3O)[C@H]3COC(=O)[C@H]23)OCO4)cc(OC)c1O	–	–	–	–	5.95	5.95
CCc1ccc(OC(C)(C)c2cn([C@H]3c4cc5c(cc4[C@@H](c4cc(OC)c(OC)c(OC)c4)[C@H]4C(=O)OC[C@@H]43)OCO5)nn2)cc1	6.82	6.82	6.82	6.82	–	–
CCc1ccc(OCc2cn([C@H]3c4cc5c(cc4[C@@H](c4cc(OC)c(OC)c(OC)c4)[C@H]4C(=O)OC[C@@H]43)OCO5)nn2)cc1	6.89	6.89	6.89	6.89	–	–
COc1cc([C@@H]2c3cc4c(cc3[C@@H](SSCC(=O)N3CCNCC3)[C@H]3COC(=O)[C@H]23)OCO4)cc(OC)c1O	–	–	–	–	5.95	5.95
COc1cc([C@@H]2c3cc4c(cc3[C@@H](SSCCCN3CCCCC3)[C@H]3COC(=O)[C@H]23)OCO4)cc(OC)c1O	–	–	–	–	5.95	5.95
COc1cc([C@@H]2c3cc4c(cc3[C@@H](SS[C@@H]3O[C@H](COC(C)=O)[C@H](OC(C)=O)[C@H](OC(C)=O)[C@H]3OC(C)=O)[C@H]3COC(=O)[C@H]23)OCO4)cc(OC)c1O	–	–	–	–	5.95	5.95
COc1cc([C@@H]2c3cc4c(cc3[C@@H](SSCCCN3CCCCC3CO)[C@H]3COC(=O)[C@H]23)OCO4)cc(OC)c1O (stereo not given in full)	–	–	–	–	5.95	5.95
COc1cc([C@@H]2c3cc4c(cc3[C@@H](SSSCCCN3CCOCC3)[C@H]3COC(=O)[C@H]23)OCO4)cc(OC)c1O	–	–	–	–	5.95	5.95
COc1cc([C@@H]2c3cc4c(cc3[C@H](n3cc(COc5ccc([N+](=O)[O-])cc5)nn3)[C@H]3COC(=O)[C@H]23)OCO4)cc(OC)c1OC	6.89	6.89	6.89	6.89	–	–
CCSS[C@@H]1c2cc3c(cc2[C@@H](c2cc(OC)c(O)c(OC)c2)[C@H]2C(=O)OC[C@@H]21)OCO3	–	–	–	–	5.95	5.95
COc1cc([C@@H]2c3cc4c(cc3[C@@H](SSCCCN3CCNCC3)[C@H]3COC(=O)[C@H]23)OCO4)cc(OC)c1O	–	–	–	–	5.95	5.95
COc1cc([C@@H]2c3cc4c(cc3[C@@H](SS[C@@H]3O[C@H](CO)[C@H](O)[C@H](O)[C@H]3O)[C@H]3COC(=O)[C@H]23)OCO4)cc(OC)c1O	–	–	–	–	5.00	5.95
